Test results from patent publication US20100063032A1, “SUBSTITUTED PYRIDO[2,3-D]PYRIMIDINE DERIVATIVES AS CANNABINOID-1 RECEPTOR MODULATORS” (priority 2007, published 2010).

Experiments:
[1] = biological target: recombinant human CB1 receptor expressed in CHO cells (Homo sapiens, UniProt P21554); test: Cannabinoid Receptor-1 (CB1) Functional Activity Assay (intracellular cAMP, forskolin); format: cell-based; conditions: for EC50: cAMP level with forskolin; for functional mode at CB1 receptor: cAMP, Biological Example 3
Chain of recombinant human CB1 receptor expressed in CHO cells (P21554 whole entry): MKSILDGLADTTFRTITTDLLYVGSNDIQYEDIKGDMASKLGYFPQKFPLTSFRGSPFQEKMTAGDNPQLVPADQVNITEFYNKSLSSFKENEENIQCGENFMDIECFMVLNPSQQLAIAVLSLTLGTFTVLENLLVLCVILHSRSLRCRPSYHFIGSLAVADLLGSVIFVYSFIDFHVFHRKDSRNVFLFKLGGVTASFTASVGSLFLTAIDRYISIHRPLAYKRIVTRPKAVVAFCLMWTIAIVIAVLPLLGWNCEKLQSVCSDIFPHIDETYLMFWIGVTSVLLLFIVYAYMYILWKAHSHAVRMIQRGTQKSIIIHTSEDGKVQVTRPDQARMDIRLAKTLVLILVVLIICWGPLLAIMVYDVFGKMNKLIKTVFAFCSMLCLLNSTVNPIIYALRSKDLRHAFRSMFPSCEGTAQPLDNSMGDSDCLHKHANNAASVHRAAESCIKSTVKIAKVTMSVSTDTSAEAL
Experimental: The functional activation of CB1 receptor is based on recombinant human CB1 receptor expressed in CHO cells (Felder et al, Mol. Pharmacol. 48: 443-450, 1995). To determine the agonist activity or inverse agonist activity of any test compound, 50 ul of CB1-CHO cell suspension are mixed with test compound and 70 ul assay buffer containing 0.34 mM 3-isobutyl-1-methylxanthine and 5.1 uM of forskolin in 96-well plates. The assay buffer is comprised of Earle's Balanced Salt Solution supplemented with 5 mM MgCl2, 1 mM glutamine, 10 mM HEPES, and 1 mg/mL bovine serum albumin. The mixture is incubated at room temperature for 30 minutes, and terminated by adding 30 ul/well of 0.5M HCl. The total intracellular cAMP level is quantitated using the New England Nuclear Flashplate and cAMP radioimmunoassay kit.
To determine the antagonist activity of test compound, the reaction mixture also contains 0.5 nM of the agonist CP55940 (or 50 nM of methanandamide), and the reversal of the CP55940 (or methanandamide) effect is quantitated with increasing concentration of the test compound. Intracellular cAMP is determined as described above. An IC50 value for the test compound is calculated from the titration curve.
Alternatively, a series of dose response curves for the agonist CP55940 (or methanandamide) is performed with increasing concentration of the test compound in each of the dose response curves, and a Schild analysis is carried to calculate the Kb value which is an estimation of test compound binding affinity.

[2] = biological target: recombinant human CB1 receptor (Homo sapiens, UniProt P21554); test: Cannabinoid Receptor-1 (CB1) Binding Assay ([3H]CP-55940 displacement); conditions: recombinant human CB1 in CHO cell membranes, 0.6 nM [3H]CP-55940
Chain of recombinant human CB1 receptor (P21554 whole entry): as above
Experimental: Binding affinity determination is based on recombinant human CB1 receptor expressed in Chinese Hamster Ovary (CHO) cells (Felder et al, Mol. Pharmacol. 48: 443-450, 1995). Total assay volume is 250 μl (240 μl CB1 receptor membrane solution plus 5 μl test compound solution plus 5 μl [3H]CP-55940 solution). Final concentration of [3H]CP-55940 is 0.6 nM. Binding buffer contains 50 mM Tris-HCl, pH 7.4, 2.5 mM EDTA, 5 mM MgCl28, 0.5 mg/mL fatty acid free bovine serum albumin and protease inhibitors (Cat#P8340, from Sigma). To initiate the binding reaction, 5 μl of radioligand solution is added, the mixture is incubated with gentle shaking on a shaker for 1.5 h at 30° C. The binding is terminated by using 96-well harvester and filtering through GF/C filter presoaked in 0.05% polyethylenimine. The bound radiolabel is quantitated using scintillation counter. Apparent binding affinities for various compounds are calculated from IC50 values (DeBlasi et al., Trends Pharmacol Sci 10: 227-229, 1989).

| SMILES | EC50 [1] | functional mode at CB1 receptor [1] | IC50 [2] |
| --- | --- | --- | --- |
| CC(C)(C)c1nc2nc(-c3ccc(-c4cn[nH]c4)cc3Cl)c(-c3ccc(Cl)cc3)cc2c(=O)[nH]1 [Example 25, 2-Tert-butyl-6-(4-chlorophenyl)-7-[2-chloro-4-(1H-pyrazol-4-yl)phenyl]pyrido[2,3-d]pyrimidin-4(3H)-one] | < 15 nM | functional inverse agonists | 10 nM |
| CC(C)(C)c1nc(NCC(F)(F)F)c2cc(-c3ccc(Br)cc3)c(-c3ccccc3Cl)nc2n1 [Example 58, 6-(4-Bromophenyl)-2-tert-butyl-7-(2-chlorophenyl)-N-(2,2,2-trifluoroethyl)pyrido[2,3-d]pyrimidin-4-amine] | < 15 nM | functional inverse agonists | 2 nM |
| Cn1c(-c2ccc(Cl)cc2)nc2nc(-c3ccccc3Cl)c(-c3ccc(Cl)cc3)cc2c1=O [Example 60, 7-(2-Chlorophenyl)-2,6-bis(4-chlorophenyl)-3-methylpyrido[2,3-d]pyrimidin-4(3H)-one] | < 15 nM | functional inverse agonists | 4 nM |
| CC(C)(C)c1nc2nc(-c3ccccc3Cl)c(-c3ccc(Cl)cc3)cc2c(=O)[nH]1 [Example 11, 2-Tert-butyl-7-(2-chlorophenyl)-6-(4-chlorophenyl)pyrido[2,3-d]pyrimidin-4(3H)-one] | < 15 nM | functional inverse agonists | 7 nM |
| CC(C)(C)c1nc(N)c2cc(-c3ccc(Cl)cc3)c(-c3ccc(Cl)cc3Cl)nc2n1 [Example 3, 2-Tert-butyl-6-(4-chlorophenyl)-7-(2,4-dichlorophenyl)pyrido[2,3-d]pyrimidin-4-amine] | < 15 nM | functional inverse agonists | 11 nM |
| CC(C)(C)c1nc(-c2ccc(F)cc2)c2cc(-c3ccc(Cl)cc3)c(-c3ccccc3Cl)nc2n1 [Example 72, 2-Tert-butyl-7-(2-chlorophenyl)-6-(4-chlorophenyl)-4-(4-fluorophenyl)pyrido[2,3-d]pyrimidine] | < 15 nM | functional inverse agonists | 0.6 nM |
| CC(C)(C)c1nc(C#N)c2cc(-c3ccc(C#N)cc3)c(-c3ccccc3Cl)nc2n1 [Example 69, 2-Tert-butyl-7-(2-chlorophenyl)-6-(4-cyanophenyl)pyrido[2,3-d]pyrimidine-4-carbonitrile] | < 15 nM | functional inverse agonists | 2 nM |
| CC(C)(C)Nc1nc(C(C)(C)C)nc2nc(-c3ccccc3Cl)c(-c3ccc(Cl)cc3)cc12 [Example 48, N,2-Di-tert-butyl-7-(2-chlorophenyl)-6-(4-chlorophenyl)pyrido[2,3-d]pyrimidin-4-amine] | < 15 nM | functional inverse agonists | 3 nM |
